The assay relates to GRα mRNA levels in PBMC. Kind of assay: Fold change ratio of GRα mRNA levels in PBMC of VKH patients after two weeks of prednisone (GC) treatment, RT-qPCR. The format is in vivo, human. Particulars: for Fold change ratio of GR levels in PBMC: after two weeks of Prednisone treatment vs baseline, oral 1 mg/Kg/day, 1 mg/kg/day; for GRα mRNA fold change median / GRα mRNA fold change range: two weeks of systemic GC therapy vs baseline. The procedure:
1) Obtainment of a 10-100 ml blood sample—preferably collected in the morning by automatic aspiration (vacutainer®) or manual (disposable syringe) methods. As an alternative or complementarily, the affected tissue or cell type may be completely or partially removed in order to carry out measurements.
2) After obtaining the sample, peripheral mononuclear cells (PBMC) are procured by the Ficoll gradient method, where a hydrophilic polysaccharide allows separating blood components into plasma, PBMC and erythrocytes. Alternatively or complementarily, the isolation of specific cell sub-types, such as CD4+, CD14+, CD8+cells, among others, may be conducted using a strategy based on magnetic microbeads or cell sorting by flow cytometry.
3) Subsequently, total RNA is extracted (Life Technologies, Inc.) by the TRIZOL method. For the obtainment of cDNA, 0.5 to 2 μg RNA is used as a template. Reverse transcription is performed preferably with kit ImProm-II™ Reverse Transcription System (Promega): a reaction mixture is prepared with 0.5 to 2 μg RNA, 1 μL Random Hexamers, 4 μL 5× ImProm-II™ RT buffer up to a final 20 μL volume, which is then incubated at 70° C. for 5 minutes, 4° C. for 5 minutes, 25° C. for 5 minutes, 42° C. for 60 minutes and 25° C. for 5 minutes.
4) cDNA is amplified using primers specific for GRα isoform: 5′-[…]-3′ (sense, SEQ ID NO: 1) and 5′-[…]-3′ (antisense, SEQ ID NO: 2) that correspond to nucleotides 2158-2178 and 2616-2635 of GRα cDNA.
5) For the amplification, a cDNA polymerase is used, preferably, the enzyme Go Taq® Flexi DNA Polymerase (Promega), starting the reaction with an initial 5 minute incubation at 95° C., followed then by 30 cycles as detailed: 95° C. for 30 seconds, 60° C. for 30 seconds and 72° C. for 30 seconds. For quantification by Real-Time qPCR a fluorophore is used, using preferably SYBR Green as fluorophore. GR measurements are made in duplicate. Finally, the results are standardized according to the expression of 18s rDNA gene that codes for the 18s ribosomal subunit.
6) Repetition of GRα mRNA level assessment according to the described protocol is carried out two weeks after initiating GC treatment. An increase is observed in GRα expression in sensitive patients and a reduction of the same in resistant patients (median of 5.5 versus 0.7, respectively).
7) Calculation of fold change ratio in GRα mRNA levels between the initial assessment and a later assessment after 2 weeks of GC treatment. GR fold change ratio=GR mRNA-2 weeks/GR mRNA at baseline
The method described in the present invention has been assessed in a group of 21 patients with Vogt-Koyanagi-Harada (VKH) disease, a specific uveitis subtype.
Cases: 13 patients affected by VKH with an inadequate response to oral treatment with 1 mg/Kg/day prednisone, in two separate doses, ⅔ of the daily dose in the morning and ⅓ of the dose in the afternoon.
Controls: 8 patients affected by VKH with an adequate response to the oral treatment with 1 mg/Kg/day prednisone, in two separate doses, ⅔ of the daily dose in the morning and ⅓ of the dose in the afternoon.
An analysis was conducted on the fold change ratio of GR transcript expression two weeks after treatment initiation, in comparison with baseline levels (prior to treatment initiation), segregating in accordance with the clinical response during follow-up. To calculate this fold change ratio, an arithmetic operation is conducted, that consists in dividing the GR levels obtained two weeks after the treatment and the baseline or initial GR levels. GR fold change ratio=GR mRNA-2 weeks/GR mRNA at baseline

The mark [1] stands for this setting: patients clinically sensitive to GC.

Where “and” joins values, the source holds several entries; their conditions need not be identical. Equal entries are not always repeated.

Take `C[C@]12C=CC(=O)C=C1CC[C@@H]1[C@@H]2C(=O)C[C@@]2(C)[C@H]1CC[C@]2(O)C(=O)CO` [Prednisone, prednisone]: the “Fold change ratio of GR levels in PBMC” value (individual patients with Vogt-Koyanagi-Harada disease clinically Resistant to GC) was 0.667 and 0.225 and 0.243 and 0.841 and 0.759; the “Fold change ratio of GR levels in PBMC” value (individual patients with Vogt-Koyanagi-Harada disease clinically Sensitive to GC) was 5.21 and 8.49 and 2.53 and 0.237 and 17.8 and 15 and 5.52. For the same compound, the “GRα mRNA fold change median” value by setting is: under setting [1], 5.5; (patients resistant to GC) 0.7. Besides, the “GRα mRNA fold change range” value under setting [1] was 0.23-17.8 and the “GRα mRNA fold change range” value (patients resistant to GC) was 0.22-0.84.
